Legend:
[1] = system: vertebrate cells, preferably BALB/c mouse spleen cells or human PBMC; assay: Immunostimulatory activity, IL-12/IL-6 secretion (Tables 9-12, cell culture not given); assay type: cell-based
Procedure: (§1) The secretion of IL-12 and IL-6 in vertebrate cells, preferably BALB/c mouse spleen cells or human PBMC, was measured by sandwich ELISA. The required reagents including cytokine antibodies and cytokine standards were purchased form PharMingen, San Diego, Calif. ELISA plates (Costar) were incubated with appropriate antibodies at 5 μg/mL in PBSN buffer (PBS/0.05% sodium azide, pH 9.6) overnight at 4° C. and then blocked with PBS/i % BSA at 37° C. for 30 minutes. Cell culture supernatants and cytokine standards were appropriately diluted with PBS/10% FBS, added to the plates in triplicate, and incubated at 25° C. for 2 hours. Plates were overlaid with 1 μg/mL appropriate biotinylated antibody and incubated at 25° C. for 1.5 hours. The plates were then washed extensively with PBS-T Buffer (PBS/0.05% Tween 20) and further incubated at 25° C. for 1.5 hours after adding streptavidin conjugated peroxidase (Sigma, St. Louis, Mo.). The plates were developed with Sure Blue™ (Kirkegaard and Perry) chromogenic reagent and the reaction was terminated by adding Stop Solution (Kirkegaard and Perry). The color change was measured on a Ceres 900 HDI Spectrophotometer (Bio-Tek Instruments).
(§2) In all instances, the levels of IL-12 and IL-6 in the cell culture supernatants were calculated from the standard curve constructed under the same experimental conditions for IL-112 and IL-6, respectively. The levels of IL-10, IFN-gamma and TNF-α in the cell culture supernatants were calculated from the standard curve constructed under the same experimental conditions for IL-10, IFN-gamma and TNF-α, respectively.

[2] = system: BALB/c mouse spleen cells; assay: Cytokine secretion in BALB/c mouse spleen cell cultures (sandwich ELISA); assay type: cell-based; conditions: for Induction of IL-12: FIG. 7A; for Induction of IL-12 / Induction of IL-6: compared with Oligo 1; for Induction of IL-6: FIG. 7B
Procedure: as §1, §2

[3] = system: BALB/c mice; assay: In vivo serum cytokine induction; set-up: species or system mouse; conditions: 4 hrs
Procedure: To assess serum cytokine levels, BALB/c mice (n=5) were injected intraperitoneally (i.p), subcutaneously (s.c) or intramuscularly (i.m) with IMO compounds at 10 mg/kg (single dose). Sera was collected by retro-orbital bleeding at 4 hrs of IMO administration and determined IL-112 and IL-6 by sandwich ELISA. Cytokine antibodies and standards were purchased from PharMingen (San Diego, Calif.).
To evaluate the immunopharmacological effects in vivo, IMO compounds, CpG immunomers, and non-CpG oligos were administered to BALB/c mice i.p, s.c or i.m at a dose of 10 mg/kg and their serum was evaluated for IL-12 and IL-6 after 4 hrs.

[4] = system: human PBMC; assay: Cytokine secretion in human PBMC cultures (sandwich ELISA); assay type: cell-based
Procedure: as §1
Human peripheral blood mononuclear cells (PBMCs) were isolated from peripheral blood of healthy volunteers by Ficoll-Paque density gradient centrifugation (Histopaque-1077, Sigma, St. Louis, Mo.). Briefly, heparinized blood was layered onto the Histopaque-1077 (equal volume) in a conical centrifuge and centrifuged at 400×g for 30 minutes at room temperature. The buffy coat, containing the mononuclear cells, was removed carefully and washed twice with isotonic phosphate buffered saline (PBS) by centrifugation at 250×g for 10 minutes. The resulting cell pellet was then resuspended in RPMI 1640 medium containing L-glutamine (MediaTech, Inc., Hemdon, Va.) and supplemented with 10% heat inactivated FCS and penicillin-streptomycin (100 U/ml). Cells were cultured in 24 well plates for different time periods at 1×10^6 cells/ml/well in the presence or absence of oligonucleotides. At the end of the incubation period, supernatants were harvested and stored frozen at −70° C. until assayed for various cytokines including IL-6 (BD Pharmingen, San Diego, Calif.), IL-10 (BD Pharmingen), IL-12 (BioSource International, Camarillo, Calif.), IFN-α (BioSource International) and -γ(BD Pharmingen) and TNF-α(BD Pharmingen) by sandwich ELISA.
as §2

[5] = Intraperitoneal (i.p), 10 mg/kg

Immunomer 75: SEQ ID NO: 37, 10mer (DNA CTGACGTTCT; DNA, backbone and methylation of C not given here; immunomer: two 10mer chains joined by non-nucleotidic linker, linker varies, further chemistry not fully specified)
IL-12 ([1]; 0.3 μg/mL, Table 12): 1074 pg/mL | IL-6 ([1]; 1 μg/mL, Table 12): 1375 pg/mL

5′-CTATCTGACGTTCTCTGT-3′ (DNA, all phosphorothioate, methylation of C not given here) [Oligonucleotide 4]
IL-12 ([2]; 0.3 μg/mL, Table 13): 225 pg/mL | IL-6 ([2]; 1 μg/mL, Table 13): 1462 pg/mL | IL-12 ([1]; 0.3 μg/mL, Table 12): 257 pg/mL | IL-6 ([1]; 1 μg/mL, Table 12): 635 pg/mL | IL-6 ([1]; 3 μg/mL, Table 11): 1892 pg/mL | IL-12 ([1]; 3 μg/mL, Table 11): 1176 pg/mL

Immunomer 78: SEQ ID NO: 37, 10mer (DNA CTGACGTTCT; DNA, backbone and methylation of C not given here; immunomer: two 10mer chains joined by non-nucleotidic linker, linker varies, further chemistry not fully specified)
IL-12 ([1]; 0.3 μg/mL, Table 12): 1750 pg/mL | IL-6 ([1]; 1 μg/mL, Table 12): 2258 pg/mL

5′-CTCACTTTCGTTCTCTGT-3′ [Oligo 51]
IL-6 ([1]; @ 3 μg/mL, Table 9): 348 pg/mL | IL-12 ([1]; @ 3 μg/mL, Table 9): 404 pg/mL

5′-CTATCTCACCTTCTCTGT-3′ (DNA, backbone not given here) [Non-CpG, reference compound]
Serum IL-12 induction ([3]; 10 mg/kg i.p, s.c or i.m): insignificant | Serum IL-6 induction ([3]; 10 mg/kg, all three routes of administration): insignificant | IL-12 (serum) ([3]; Intramuscular (i.m), 10 mg/kg): 1.6 ± 0.07 ng/mL | IL-6 (serum) [3, 5]: 0.7 ± 0.3 ng/mL | IL-12 (serum) [3, 5]: 0.86 ± 0.5 ng/mL | IL-12 (serum) ([3]; Subcutaneous (s.c), 10 mg/kg): 1.7 ± 0.04 ng/mL

5-GAGAACGCTCGACCTT-3′-3′-TTCCAGCTCGCAAGAG-5′ [Immunomer 2]
Induction of IL-12 [2]: stronger inducer of IL-12 than monomeric Oligo 1 | Induction of IL-6 [2]: stronger inducer of IL-6 than monomeric Oligo 1 | Elevation of IL-12, IL-6 and IL-10 ([2]; FIGS. 7A-C): elevates IL-12 and IL-6, but not IL-10 at lower concentrations than Oligonucleotides 1 or 3

Immunomer 82: SEQ ID NO: 37, 10mer (DNA CTGACGTTCT; listed as DNA, chemistry not fully specified)
IL-12 ([1]; 0.3 μg/mL, Table 12): 4248 pg/mL | IL-6 ([1]; 1 μg/mL, Table 12): 2988 pg/mL

Immunomer 80: SEQ ID NO: 37, 10mer (DNA CTGACGTTCT; listed as DNA, chemistry not fully specified)
IL-12 ([1]; 0.3 μg/mL, Table 12): 1493 pg/mL | IL-6 ([1]; 1 μg/mL, Table 12): 1197 pg/mL

Immunomer 79: SEQ ID NO: 37, 10mer (DNA CTGACGTTCT; listed as DNA, chemistry not fully specified)
IL-12 ([1]; 0.3 μg/mL, Table 12): 2255 pg/mL | IL-6 ([1]; 1 μg/mL, Table 12): 2034 pg/mL

Immunomer 70: SEQ ID NO: 24, 11mer (DNA TCTGACNTTCT; listed as DNA, chemistry not fully specified)
IL-6 ([1]; 3 μg/mL, Table 11): 1741 pg/mL | IL-12 ([1]; 3 μg/mL, Table 11): 1780 pg/mL

Immunomer 68: SEQ ID NO: 7, 14mer (DNA CTGACNTTCTCTGT; listed as DNA, chemistry not fully specified)
IL-6 ([1]; 3 μg/mL, Table 11): 1020 pg/mL | IL-12 ([1]; 3 μg/mL, Table 11): 1052 pg/mL

Immunomer 73: SEQ ID NO: 37, 10mer (DNA CTGACGTTCT; listed as DNA, chemistry not fully specified)
IL-12 ([1]; 0.3 μg/mL, Table 12): 697 pg/mL | IL-6 ([1]; 1 μg/mL, Table 12): 1454 pg/mL

Immunomer 65: SEQ ID NO: 4, 18mer (DNA CTATCTGANGTTCTCTGT; listed as DNA, chemistry not fully specified)
IL-6 ([1]; 3 μg/mL, Table 11): 192 pg/mL | IL-12 ([1]; 3 μg/mL, Table 11): 443 pg/mL

Immunomer 77: SEQ ID NO: 37, 10mer (DNA CTGACGTTCT; DNA, backbone and methylation of C not given here; immunomer: two 10mer chains joined by non-nucleotidic linker, linker varies, further chemistry not fully specified)
IL-12 ([1]; 0.3 μg/mL, Table 12): 264 pg/mL | IL-6 ([1]; 1 μg/mL, Table 12): 543 pg/mL

Immunomer 69: SEQ ID NO: 36, 11mer (DNA TCTGANGTTCT; listed as DNA, chemistry not fully specified)
IL-6 ([1]; 3 μg/mL, Table 11): 2724 pg/mL | IL-12 ([1]; 3 μg/mL, Table 11): 2050 pg/mL

Immunomer 76: SEQ ID NO: 37, 10mer (DNA CTGACGTTCT; DNA, backbone and methylation of C not given here; immunomer: two 10mer chains joined by non-nucleotidic linker, linker varies, further chemistry not fully specified)
IL-12 ([1]; 0.3 μg/mL, Table 12): 563 pg/mL | IL-6 ([1]; 1 μg/mL, Table 12): 705 pg/mL

Immunomer 74: SEQ ID NO: 37, 10mer (DNA CTGACGTTCT; DNA, backbone and methylation of C not given here; immunomer: two 10mer chains joined by non-nucleotidic linker, linker varies, further chemistry not fully specified)
IL-12 ([1]; 0.3 μg/mL, Table 12): 1162 pg/mL | IL-6 ([1]; 1 μg/mL, Table 12): 669 pg/mL

Immunomer 57: SEQ ID NO: 32, 11mer (DNA TCTTTNGTTCT; listed as DNA, chemistry not fully specified)
IL-6 ([1]; @ 3 μg/mL, Table 9): 365 pg/mL | IL-12 ([1]; @ 3 μg/mL, Table 9): 591 pg/mL

5′-CTATCTGTCGTTCTCTGT-3′ (phosphorothioate, further chemistry not given here) [Oligo 25, 18mer (PS)]
IFN-γ ([4]; donor 1 (D1)): 125 pg/mL | IL-6 ([4]; donor 1 (D1)): 3077 pg/mL | IL-10 ([4]; donor 1 (D1)): 37 pg/mL | IL-12 ([4]; donor 1 (D1)): 184 pg/mL | TNF-α ([4]; donor 1 (D1)): 537 pg/mL | IFN-γ ([4]; donor 2 (D2)): 84 pg/mL | IL-6 ([4]; donor 2 (D2)): 5369 pg/mL | IL-10 ([4]; donor 2 (D2)): 88 pg/mL | IL-12 ([4]; donor 2 (D2)): 332 pg/mL | IL-6 ([1]; 3 μg/mL, Table 10): 339 pg/mL | IL-12 ([1]; 3 μg/mL, Table 10): 379 pg/mL

3′-TTCCAGCTCGCAAGAG-5′-5′-GAGAACGCTCGACCTT-3′ [Immunomer 3]
Induction of IL-12 [2]: equal or weaker ability to produce immune stimulation compared with oligo 1 | Induction of IL-6 [2]: equal or weaker ability to induce immune stimulation compared with Oligo 1

Immunomer 61: SEQ ID NO: 34, 11mer (DNA TCTGTNGTTCT; listed as DNA, chemistry not fully specified)
IL-6 ([1]; 3 μg/mL, Table 10): 470 pg/mL | IL-12 ([1]; 3 μg/mL, Table 10): 1127 pg/mL

Immunomer 62: SEQ ID NO: 35, 11mer (DNA TCTGTCNTTCT; listed as DNA, chemistry not fully specified)
IL-6 ([1]; 3 μg/mL, Table 10): 296 pg/mL | IL-12 ([1]; 3 μg/mL, Table 10): 787 pg/mL

Immunomer 67: SEQ ID NO: 6, 14mer (DNA CTGANGTTCTCTGT; listed as DNA, chemistry not fully specified)
IL-6 ([1]; 3 μg/mL, Table 11): 152 pg/mL | IL-12 ([1]; 3 μg/mL, Table 11): 548 pg/mL

Immunomer 66: SEQ ID NO: 5, 18mer (DNA CTATCTGACNTTCTCTGT; listed as DNA, chemistry not fully specified)
IL-6 ([1]; 3 μg/mL, Table 11): 464 pg/mL | IL-12 ([1]; 3 μg/mL, Table 11): 627 pg/mL

Immunomer 58: SEQ ID NO: 33, 11mer (DNA TCTTTCNTTCT; listed as DNA, chemistry not fully specified)
IL-6 ([1]; @ 3 μg/mL, Table 9): 283 pg/mL | IL-12 ([1]; @ 3 μg/mL, Table 9): 303 pg/mL

Immunomer 81: SEQ ID NO: 37, 10mer (DNA CTGACGTTCT; listed as DNA, chemistry not fully specified)
IL-12 ([1]; 0.3 μg/mL, Table 12): 3625 pg/mL | IL-6 ([1]; 1 μg/mL, Table 12): 2642 pg/mL

Immunomer 83: SEQ ID NO: 37, 10mer (DNA CTGACGTTCT; listed as DNA, chemistry not fully specified)
IL-12 ([1]; 0.3 μg/mL, Table 12): 1241 pg/mL | IL-6 ([1]; 1 μg/mL, Table 12): 1964 pg/mL
